Molecules are shown by their SMILES. pKd: −log10 of the molar value.

The target of this assay is T1, BRD4 bromodomains (Homo sapiens, UniProt O60885).
T1 construct: fused on or other part: T7 phage capsid protein (phage-display fusion; the phage DNA is read out by qPCR)
The assay is described as follows: BROMOscan bromodomain competition binding assay (DiscoveRx). The following applies: Kd from 11 compound concentrations ranging from 0 to 10 μM, read-out: BROMOscan Relative Activity. Summed up: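 Compounds in 0.1% DMSO/0.9% MEG competed with a solid-phase acetylated peptide for T7 phage-fused BRD4 bromodomains, with the retained bromodomain measured by qPCR.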
Turning to `Cc1noc(C)c1-c1ccc2nc(C(=O)NC3CCS(=O)(=O)CC3)nc(NCc3cccc(Cl)c3)c2c1` [Example 204, 4-((3-chlorobenzyl)amino)-6-(3,5-dimethylisoxazol-4-yl)-N-(1,1-dioxidotetrahydro-2H-thiopyran-4-yl)quinazoline-2-carboxamide], the pKd was above 6.30.
The figure for `Cc1nn(C)cc1CNC(=O)c1nc(NCc2cccc(Cl)c2)c2cc(-c3c(C)noc3C)ccc2n1` [Example 205, 4-((3-chlorobenzyl)amino)-N-((1,3-dimethyl-1H-pyrazol-4-yl)methyl)-6-(3,5-dimethylisoxazol-4-yl)quinazoline-2-carboxamide] is above 6.30; for `Cc1noc(C)c1-c1ccc2nc(C(=O)NCc3ccnc(Cl)c3)nc(NCc3cncc(Cl)c3)c2c1` [Example 206, 4-(((5-chloropyridin-3-yl)methyl)amino)-N-((2-chloropyridin-4-yl)methyl)-6-(3,5-dimethylisoxazol-4-yl)quinazoline-2-carboxamide] it is above 6.30; for `Cc1noc(C)c1-c1ccc2nc(C(=O)NCc3ccncc3)nc(NCc3cncc(Cl)c3)c2c1` [Example 207, 4-(((5-chloropyridin-3-yl)methyl)amino)-6-(3,5-dimethylisoxazol-4-yl)-N-(pyridin-4-ylmethyl)quinazoline-2-carboxamide] it is above 6.30.
In the case of `Cc1noc(C)c1-c1ccc2nc(C(=O)NCc3ccncc3Cl)nc(NCc3cccc(Cl)c3)c2c1` [Example 208, 4-((3-chlorobenzyl)amino)-N-((3-chloropyridin-4-yl)methyl)-6-(3,5-dimethylisoxazol-4-yl)quinazoline-2-carboxamide], the pKd was above 6.30.
The figure for `Cc1noc(C)c1-c1ccc2nc(C(=O)NC3CCN(C)CC3)nc(NCc3cncc(Cl)c3)c2c1` [Example 209, 4-(((5-chloropyridin-3-yl)methyl)amino)-6-(3,5-dimethylisoxazol-4-yl)-N-(1-methylpiperidin-4-yl)quinazoline-2-carboxamide] is above 6.30; for `Cc1noc(C)c1-c1ccc2nc(C3=CCN(S(C)(=O)=O)CC3)nc(NCc3cccc(Cl)c3)c2c1` [Example 210, N-(3-chlorobenzyl)-6-(3,5-dimethylisoxazol-4-yl)-2-(1-(methylsulfonyl)-1,2,3,6-tetrahydropyridin-4-yl)quinazolin-4-amine] it is 5.30 to 6.30; for `Cc1noc(C)c1-c1ccc2nc(C(=O)N(C)C3CCN(C)CC3)nc(NCc3cccc(Cl)c3)c2c1` [Example 211, 4-((3-chlorobenzyl)amino)-6-(3,5-dimethylisoxazol-4-yl)-N-methyl-N-(1-methylpiperidin-4-yl)quinazoline-2-carboxamide] it is above 6.30.
As to `Cc1ncc(CNC(=O)c2nc(NCc3cccc(Cl)c3)c3cc(-c4c(C)noc4C)ccc3n2)s1` [Example 212, 4-((3-chlorobenzyl)amino)-6-(3,5-dimethylisoxazol-4-yl)-N-((2-methylthiazol-5-yl)methyl)quinazoline-2-carboxamide], the pKd is above 6.30.
The figure for `Cc1cnc(CNC(=O)c2nc(NCc3cccc(Cl)c3)c3cc(-c4c(C)noc4C)ccc3n2)s1` [Example 213, 4-((3-chlorobenzyl)amino)-6-(3,5-dimethylisoxazol-4-yl)-N-((5-methylthiazol-2-yl)methyl)quinazoline-2-carboxamide] is above 6.30.
For `Cc1csc(CNC(=O)c2nc(NCc3cccc(Cl)c3)c3cc(-c4c(C)noc4C)ccc3n2)n1` [Example 214, 4-((3-chlorobenzyl)amino)-6-(3,5-dimethylisoxazol-4-yl)-N-((4-methylthiazol-2-yl)methyl)quinazoline-2-carboxamide], the pKd is above 6.30.
The figure for `Cc1noc(C)c1-c1ccc2nc(C(=O)NCc3ccncc3F)nc(NCc3cccc(Cl)c3)c2c1` [Example 215, 4-((3-chlorobenzyl)amino)-6-(3,5-dimethylisoxazol-4-yl)-N-((3-fluoropyridin-4-yl)methyl)quinazoline-2-carboxamide] is above 6.30; for `Cc1cnc(CNC(=O)c2nc(NCc3cccc(Cl)c3)c3cc(-c4c(C)noc4C)ccc3n2)o1` [Example 216, 4-((3-chlorobenzyl)amino)-6-(3,5-dimethylisoxazol-4-yl)-N-((5-methyloxazol-2-yl)methyl)quinazoline-2-carboxamide] it is above 6.30; for `Cc1cnccc1CNC(=O)c1nc(NCc2cccc(Cl)c2)c2cc(-c3c(C)noc3C)ccc2n1` [Example 217, 4-((3-chlorobenzyl)amino)-6-(3,5-dimethylisoxazol-4-yl)-N-((3-methylpyridin-4-yl)methyl)quinazoline-2-carboxamide] it is above 6.30.
As for `Cc1cc(NC(=O)c2nc(NCc3cccc(Cl)c3)c3cc(-c4c(C)noc4C)ccc3n2)ccn1` [Example 218, 4-((3-chlorobenzyl)amino)-6-(3,5-dimethylisoxazol-4-yl)-N-(2-methylpyridin-4-yl)quinazoline-2-carboxamide], the pKd is 5.30 to 6.30.
`Cc1ccc(NC(=O)c2nc(NCc3cccc(Cl)c3)c3cc(-c4c(C)noc4C)ccc3n2)cn1` [Example 219, 4-((3-chlorobenzyl)amino)-6-(3,5-dimethylisoxazol-4-yl)-N-(6-methylpyridin-3-yl)quinazoline-2-carboxamide]: the pKd is 5.30 to 6.30.
On to `Cc1ccncc1NC(=O)c1nc(NCc2cccc(Cl)c2)c2cc(-c3c(C)noc3C)ccc2n1` [Example 220, 4-((3-chlorobenzyl)amino)-6-(3,5-dimethylisoxazol-4-yl)-N-(4-methylpyridin-3-yl)quinazoline-2-carboxamide], for which the pKd is above 6.30.
The figure for `Cc1noc(C)c1-c1ccc2nc(C(=O)Nc3cncc(F)c3)nc(NCc3cccc(Cl)c3)c2c1` [Example 221, 4-((3-chlorobenzyl)amino)-6-(3,5-dimethylisoxazol-4-yl)-N-(5-fluoropyridin-3-yl)quinazoline-2-carboxamide] is 5.30 to 6.30.
Consider `Cc1noc(C)c1-c1ccc2nc(C(=O)Nc3ccc(Cl)nc3)nc(NCc3cccc(Cl)c3)c2c1` [Example 222, 4-((3-chlorobenzyl)amino)-N-(6-chloropyridin-3-yl)-6-(3,5-dimethylisoxazol-4-yl)quinazoline-2-carboxamide], for which the pKd is below 5.30.
As to `Cc1noc(C)c1-c1ccc2nc(C(=O)Nc3ccncc3F)nc(NCc3cccc(Cl)c3)c2c1` [Example 223, 4-((3-chlorobenzyl)amino)-6-(3,5-dimethylisoxazol-4-yl)-N-(3-fluoropyridin-4-yl)quinazoline-2-carboxamide], the pKd is below 5.30.
As to `Cc1cc(NC(=O)c2nc(NCc3cccc(Cl)c3)c3cc(-c4c(C)noc4C)ccc3n2)cc(C)n1` [Example 224, 4-((3-chlorobenzyl)amino)-6-(3,5-dimethylisoxazol-4-yl)-N-(2,6-dimethylpyridin-4-yl)quinazoline-2-carboxamide], the pKd was 5.30 to 6.30.
On to `Cc1noc(C)c1-c1ccc2nc(C(=O)Nc3cnn(C)c3)nc(NCc3cccc(Cl)c3)c2c1` [Example 225, 4-((3-chlorobenzyl)amino)-6-(3,5-dimethylisoxazol-4-yl)-N-(1-methyl-1H-pyrazol-4-yl)quinazoline-2-carboxamide], for which the pKd is above 6.30.
Turning to `Cc1noc(C)c1-c1ccc2nc(C(=O)NC3CCOCC3)nc(NCc3cccc(Cl)c3)c2c1` [Example 226, 4-((3-chlorobenzyl)amino)-6-(3,5-dimethylisoxazol-4-yl)-N-(tetrahydro-2H-pyran-4-yl)quinazoline-2-carboxamide], the pKd is above 6.30.
As to `CN1CCC(NC(=O)c2cc(NCc3cccc(Cl)c3)c3cc(-c4ccc(=O)n(C)c4)ccc3n2)CC1` [Example 227, 4-((3-chlorobenzyl)amino)-6-(1-methyl-6-oxo-1,6-dihydropyridin-3-yl)-N-(1-methylpiperidin-4-yl)quinoline-2-carboxamide], the pKd is above 6.30.
Regarding `Cc1noc(C)c1-c1ccc2nc(C(=O)NC3CCN(C)CC3)cc(NCc3cccc(Cl)c3)c2c1` [Example 228, 4-((3-chlorobenzyl)amino)-6-(3,5-dimethylisoxazol-4-yl)-N-(1-methylpiperidin-4-yl)quinoline-2-carboxamide], the pKd is above 6.30.
The figure for `Cc1noc(C)c1-c1ccc2nc(C(=O)NC3CCOCC3)nc(NCc3cncc(Cl)c3)c2c1` [Example 229, 4-(((5-chloropyridin-3-yl)methyl)amino)-6-(3,5-dimethylisoxazol-4-yl)-N-(tetrahydro-2H-pyran-4-yl)quinazoline-2-carboxamide] is above 6.30; for `Cc1nn(C)cc1CNC(=O)c1cc(NCc2cccc(Cl)c2)c2cc(-c3c(C)noc3C)ccc2n1` [Example 230, 4-((3-chlorobenzyl)amino)-N-((1,3-dimethyl-1H-pyrazol-4-yl)methyl)-6-(3,5-dimethylisoxazol-4-yl)quinoline-2-carboxamide] it is above 6.30; for `Cc1noc(C)c1-c1ccc2nc(C(=O)NCC3CN(C)C3)cc(NCc3cccc(Cl)c3)c2c1` [Example 231, 4-((3-chlorobenzyl)amino)-6-(3,5-dimethylisoxazol-4-yl)-N-((1-methylazetidin-3-yl)methyl)quinoline-2-carboxamide] it is above 6.30.
The figure for `Cc1noc(C)c1-c1ccc2nc(C(=O)NCc3cncn3C)nc(NCc3cncc(Cl)c3)c2c1` [Example 232, 4-(((5-chloropyridin-3-yl)methyl)amino)-6-(3,5-dimethylisoxazol-4-yl)-N-((1-methyl-1H-imidazol-5-yl)methyl)quinazoline-2-carboxamide] is above 6.30; for `Cc1noc(C)c1-c1ccc2nc(C(=O)NCC3CN(C)C3)nc(NCc3cncc(Cl)c3)c2c1` [Example 233, 4-(((5-chloropyridin-3-yl)methyl)amino)-6-(3,5-dimethylisoxazol-4-yl)-N-((1-methylazetidin-3-yl)methyl)quinazoline-2-carboxamide] it is above 6.30; for `Cc1noc(C)c1-c1ccc2nc(C(=O)NC3CN(C)C3)cc(NCc3cccc(Cl)c3)c2c1` [Example 234, 4-((3-chlorobenzyl)amino)-6-(3,5-dimethylisoxazol-4-yl)-N-(1-methylazetidin-3-yl)quinoline-2-carboxamide] it is above 6.30.

The values above are taken from US11028079B2 (ConverGene LLC, priority 2015, dated 2021).
